Measurements as given in ChEMBL document CHEMBL5154829, “Discovery and biological evaluation of tanshinone derivatives as potent dual inhibitors of indoleamine 2, 3-dioxygenase 1 and tryptophan 2, 3-dioxygenase” (Eur J Med Chem, 2022).
The source made the active and inactive calls. The calls are words filed in the database; no cut-off is given here.

Experiments:
[1] = molecular target: T1, Tryptophan 2,3-dioxygenase (Homo sapiens, UniProt P48775); assay: Inhibition of recombinant human TDO assessed as reduction in N-formylkynurenine formation using L-tryptophan as substrate and measured after 15 mins
Target sequence in this assay (P48775 whole entry): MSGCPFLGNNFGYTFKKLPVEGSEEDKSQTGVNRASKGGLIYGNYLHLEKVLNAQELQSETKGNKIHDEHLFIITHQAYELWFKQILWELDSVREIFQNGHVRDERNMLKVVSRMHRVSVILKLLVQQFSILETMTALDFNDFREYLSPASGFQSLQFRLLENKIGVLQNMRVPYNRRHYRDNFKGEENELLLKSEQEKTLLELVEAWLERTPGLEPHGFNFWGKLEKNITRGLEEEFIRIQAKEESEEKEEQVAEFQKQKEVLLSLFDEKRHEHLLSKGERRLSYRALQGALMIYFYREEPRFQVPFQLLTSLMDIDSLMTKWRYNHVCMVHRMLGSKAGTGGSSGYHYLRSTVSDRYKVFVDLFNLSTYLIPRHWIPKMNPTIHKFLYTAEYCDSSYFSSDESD

[2] = molecular target: T2, Indoleamine 2,3-dioxygenase 1 (Homo sapiens, UniProt P14902); assay: Inhibition of IDO1 in IFNgamma-stimulated human HeLa cells assessed as reduction in kynurenine formation using L-tryptophan as substrate by absorbance based analysis; assay type: cell-based
Target sequence in this assay (P14902 whole entry): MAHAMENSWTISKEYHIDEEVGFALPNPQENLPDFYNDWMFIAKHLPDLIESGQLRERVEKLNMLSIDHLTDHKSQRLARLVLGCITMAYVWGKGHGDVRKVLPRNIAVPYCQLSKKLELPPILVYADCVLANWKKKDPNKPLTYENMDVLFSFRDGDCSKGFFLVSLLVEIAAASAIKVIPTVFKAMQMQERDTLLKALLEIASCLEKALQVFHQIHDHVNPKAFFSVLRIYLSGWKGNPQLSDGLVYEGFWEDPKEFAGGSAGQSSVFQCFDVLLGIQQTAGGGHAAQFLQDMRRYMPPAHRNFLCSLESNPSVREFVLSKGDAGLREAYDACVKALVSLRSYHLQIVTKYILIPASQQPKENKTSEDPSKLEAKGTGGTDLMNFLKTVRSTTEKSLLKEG

[3] = molecular target: T1, Tryptophan 2,3-dioxygenase; assay: Inhibition of TDO in human HEK293 cells assessed as reduction in kynurenine formation using L-tryptophan as substrate by absorbance based analysis; assay type: cell-based
Target sequence in this assay (P48775 whole entry): as the sequence (P48775 whole entry) above

[4] = molecular target: T2, Indoleamine 2,3-dioxygenase 1; assay: Inhibition of recombinant human IDO1 assessed as reduction in N-formylkynurenine formation using L-tryptophan as substrate and measured after 15 mins
Target sequence in this assay (P14902 whole entry): as the sequence (P14902 whole entry) above

HeLa [5] = assay: Induction of apoptosis in IFNgamma-stimulated human HeLa cells assessed apoptotic cells at 5 uM measured after 12 hrs by Annexin V-FITC/PI based flow cytometry analysis; assay type: functional
[6] = molecular target: T2, Indoleamine 2,3-dioxygenase 1; assay: Non-competitive inhibition of recombinant human IDO1 measured by UV/visible spectrophotometric method
Target sequence in this assay (P14902 whole entry, looked up): as the sequence (P14902 whole entry) above

HeLa [7] = assay: Induction of apoptosis in human HeLa cells assessed apoptotic cells at 10 uM measured after 24 hrs by Annexin V-FITC/PI based flow cytometry analysis; assay type: functional
HeLa [8] = assay: Induction of apoptosis in human HeLa cells assessed as decrease in Bcl-2 expression at 1 to 10 uM measured by western blot analysis; assay type: functional, cell-based; conditions: dose 1-10 µM
HeLa [9] = assay: Induction of apoptosis in human HeLa cells assessed as increase in Bax expression at 1 to 10 uM measured by western blot analysis; assay type: functional, cell-based; conditions: dose 1-10 µM
HeLa [10] = assay: Induction of apoptosis in human HeLa cells assessed apoptotic cells at 5 uM measured after 12 hrs by Annexin V-FITC/PI based flow cytometry analysis; assay type: functional
[11] = molecular target: T1, Tryptophan 2,3-dioxygenase; assay: Competitive inhibition of recombinant human TDO measured by surface plasmon resonance assay
Target sequence in this assay (P48775 whole entry): as the sequence (P48775 whole entry) above

[12] = molecular target: T1, Tryptophan 2,3-dioxygenase; assay: Competitive inhibition of recombinant human TDO measured by UV/visible spectrophotometric method
Target sequence in this assay (P48775 whole entry, looked up): as the sequence (P48775 whole entry) above

[13] = Hemolytic activity in rat RBC at 500 uM incubated for 30 mins; assay type: toxicity, cell-based, Erythrocyte; conditions: rat red blood cells (erythrocytes), read-out: Activity
HeLa [14] = assay: Induction of apoptosis in human HeLa cells assessed as increase in Bax/Bcl-2 ratio at 1 to 10 uM measured by western blot analysis; assay type: functional, cell-based; conditions: dose 1-10 µM
[15] = molecular target: T2, Indoleamine 2,3-dioxygenase 1; assay: Non-competitive inhibition of recombinant human IDO1 measured by surface plasmon resonance assay
Target sequence in this assay (P14902 whole entry): as the sequence (P14902 whole entry) above

HeLa [16] = assay: Induction of apoptosis in human HeLa cells assessed apoptotic cells at 5 uM measured after 6 hrs by Annexin V-FITC/PI based flow cytometry analysis; assay type: functional, cell-based
[17] = Cytotoxicity against human HEK-293T cells; assay type: toxicity, cell-based

| SMILES | IC50 [1] | IC50 [2] | IC50 [3] | IC50 [4] | other results |
| --- | --- | --- | --- | --- | --- |
| Cc1coc2c1C(=O)C(=O)c1c-2ccc2c1CC[C@H](O)C2(C)C | 2700 nM | > 10000 nM | > 10000 nM | 5120 nM | – |
| CC(=O)O[C@H]1CCc2c(ccc3c2C(=O)C(=O)c2c(C)coc2-3)C1(C)C | 370 nM | > 10000 nM | 2800 nM | 400 nM | – |
| Cc1coc2c1C(=O)C(=O)c1c-2ccc2c1C=CCC2(C)C | > 10000 nM | – | – | > 10000 nM | – |
| C[C@H]1COC2=C1C(=O)C(=O)c1c2ccc2c1CCCC2(C)C [CRYPTOTANSHINONE] | 9800 nM | – | – | 10000 nM | – |
| Cc1coc2c1C(=O)C(=O)c1c-2ccc2c1CCCC2(C)C [TANSHINONE IIA] | > 10000 nM | – | – | > 10000 nM | – |
| Cc1coc2c1C(=O)C(=O)c1c-2ccc2c1C(Br)CCC2(C)C (configuration not stated) | 710 nM | > 10000 nM | 8100 nM | 1500 nM | – |
| Cc1coc2c1C(=O)C(=O)c1c-2ccc2c1C=CC(=O)C2(C)C | 960 nM | 9330 nM | > 10000 nM | 980 nM | – |
| Cc1coc2c1C(=O)C(=O)c1c-2ccc2c1CC[C@H](OS(C)(=O)=O)C2(C)C | 1210 nM | 5100 nM | > 10000 nM | 810 nM | – |
| COC(=O)c1coc2c1C(=O)C(=O)c1c-2ccc2c1C=CC(=O)C2(C)C | > 10000 nM | – | – | > 10000 nM | – |
| CC(=O)OCc1coc2c1C(=O)C(=O)c1c-2ccc2c1C=CC(=O)C2(C)C | 160 nM | 270 nM | 1870 nM | 70 nM | Activity (HeLa [5]): 68.6%; inhibition [6]: Active; Activity (HeLa [7]): 92.8%; Activity (HeLa [8]): Active; Activity (HeLa [9]): Active; Activity (HeLa [10]): 39.9%; Ki [11]: 730 nM; inhibition [12]: Active; hemolysis at 0.5 h, 500 µM [13]: 10%; Activity (HeLa [14]): Active; Ki [15]: 230 nM; Activity (HeLa [16]): Active; IC50 [17]: > 10000 nM |
| CC1(C)c2ccc3c(c2CC[C@@H]1O)C(=O)C(=O)c1c(CO)coc1-3 | 1010 nM | 1670 nM | 950 nM | 590 nM | – |
| CC1(C)C(=O)C=Cc2c1ccc1c2C(=O)C(=O)c2c(C(=O)O)coc2-1 | > 10000 nM | 8550 nM | > 10000 nM | 4570 nM | – |
| CC1(C)C(=O)C=Cc2c1ccc1c2C(=O)C(=O)c2c(CF)coc2-1 | 570 nM | 650 nM | 730 nM | 420 nM | – |
| Cc1coc2c1C(=O)C(=O)c1c-2ccc2c1CCC(=O)C2(C)C | 940 nM | > 10000 nM | > 10000 nM | 360 nM | – |
| CC1(C)CCCc2c1ccc1c2C(=O)C(=O)c2c(CO)coc2-1 [PRZEWAQUINONE A] | 450 nM | > 10000 nM | 7180 nM | 1070 nM | – |
| Cc1c[nH]c2c1C(=O)C(=O)c1c-2ccc2c1CCCC2(C)C | > 10000 nM | – | – | > 10000 nM | – |

| SMILES | IC50 [1] | IC50 [2] | IC50 [3] | IC50 [4] | other results |
| --- | --- | --- | --- | --- | --- |
| CC1(C)C(=O)CCc2c1ccc1c2C(=O)C(=O)c2c(CO)coc2-1 | 200 nM | 450 nM | 3130 nM | 160 nM | – |
| Cc1coc2c1C(=O)C(=O)c1c-2ccc2c1C(=O)C(O)CC2(C)C (configuration not stated) | 1480 nM | > 10000 nM | > 10000 nM | 490 nM | – |
| Cc1c(Br)oc2c1C(=O)C(=O)c1c-2ccc2c1CCCC2(C)C | > 10000 nM | – | – | > 10000 nM | – |
| CCN(CC)C(=O)c1coc2c1C(=O)C(=O)c1c-2ccc2c1C=CC(=O)C2(C)C | 9540 nM | > 10000 nM | > 10000 nM | 3270 nM | – |
| CC1(C)C(=O)C=Cc2c1ccc1c2C(=O)C(=O)c2c(CCl)coc2-1 | 110 nM | 680 nM | 340 nM | 140 nM | – |
| CC(=O)OCc1coc2c1C(=O)C(=O)c1c-2ccc2c1CCC(=O)C2(C)C | 670 nM | 810 nM | 860 nM | 1730 nM | – |
| CC1(C)C(=O)C=Cc2c1ccc1c2C(=O)C(=O)c2c(C=O)coc2-1 | > 10000 nM | – | – | > 10000 nM | – |
| CC(=O)Oc1c(OC(C)=O)c2c(C)coc2c2ccc3c(c12)CCCC3(C)C | > 10000 nM | – | – | > 10000 nM | – |
| CC(=O)O[C@H]1CCc2c(ccc3c2C(=O)C(=O)c2c(CO)coc2-3)C1(C)C | 1840 nM | 1870 nM | 1910 nM | 750 nM | – |
| NS(=O)(=O)NCCNc1nonc1C(=NO)Nc1ccc(F)c(Br)c1 [EPACADOSTAT] | 16100 nM | – | 10400 nM | – | – |
| Cc1coc2c1c(=O)oc(=O)c1c3c(ccc12)C(C)(C)CCC3 | > 10000 nM | – | – | > 10000 nM | – |
| CC1(C)C(=O)C=Cc2c1ccc1c2C(=O)C(=O)c2c(CO)coc2-1 | 450 nM | 2560 nM | 1420 nM | 220 nM | – |
| C[C@@H](CO)C1=C(O)C(=O)c2c(ccc3c2CCCC3(C)C)C1=O | > 10000 nM | – | – | > 10000 nM | – |
| CC(=O)OCc1coc2c1C(=O)C(=O)c1c-2ccc2c1CC[C@H](O)C2(C)C | 2420 nM | 2420 nM | 2060 nM | 670 nM | – |
| Cc1coc2c1C(=O)C(=O)c1c-2ccc2c1C(=O)C(O)=CC2(C)C | 1010 nM | > 10000 nM | > 10000 nM | 2880 nM | – |
| C[C@@H](C=O)C1=C(O)C(=O)c2c(ccc3c2CCCC3(C)C)C1=O | > 10000 nM | – | – | > 10000 nM | – |
